Calls of active or inactive are those of the source. The calls are words filed in the database; no cut-off is given here.
Tests used:
[1] = target: T1, Glycogen synthase kinase-3 beta (Homo sapiens, UniProt P49841); test: Inhibition of GSK3-beta (unknown origin) at 10 uM incubated for 60 mins by ATP-Glo luminescent assay
Target sequence in this assay (P49841 whole entry, looked up): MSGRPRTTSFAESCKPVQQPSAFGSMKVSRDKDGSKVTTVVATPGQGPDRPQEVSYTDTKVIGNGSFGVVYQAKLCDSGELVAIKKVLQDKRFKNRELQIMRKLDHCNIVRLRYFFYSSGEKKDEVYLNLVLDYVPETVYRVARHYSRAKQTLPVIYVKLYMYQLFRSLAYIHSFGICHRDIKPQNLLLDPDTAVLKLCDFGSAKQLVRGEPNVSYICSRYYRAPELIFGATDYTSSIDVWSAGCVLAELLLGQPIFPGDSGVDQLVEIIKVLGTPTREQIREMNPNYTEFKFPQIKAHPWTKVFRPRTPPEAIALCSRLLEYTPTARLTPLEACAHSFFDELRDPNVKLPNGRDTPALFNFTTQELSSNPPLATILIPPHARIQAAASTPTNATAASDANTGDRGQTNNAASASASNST

[2] = Selectivity index, ratio of IC50 for equine serum BChE to IC50 for electric eel AChE
Acetylcholinesterase = Acetylcholinesterase (Electrophorus electricus, UniProt O42275); test: Inhibition of electric eel AChE using acetylthiocholine iodide as substrate preincubated with enzyme for 20 mins followed by substrate addition and measured after 20 mins by Ellman's method
[3] = target: Cholinesterase (Equus caballus) (UniProt P81908); test: Inhibition of equine serum BChE at 50 uM using butyrylthiocholine iodide as substrate preincubated with enzyme for 20 mins followed by substrate addition and measured after 20 mins by Ellman's method; assay type: cell-free; settings: time 40.0 min
Cholinesterase = Cholinesterase (Equus caballus, UniProt P81908); test: Inhibition of equine serum BChE using butyrylthiocholine iodide as substrate preincubated with enzyme for 20 mins followed by substrate addition and measured after 20 mins by Ellman's method; assay type: cell-free
[4] = target: Acetylcholinesterase (Electrophorus electricus) (UniProt O42275); test: Potency index, ratio of harmine IC50 to test compound IC50 for electric eel AChE
[5] = target: T1, Glycogen synthase kinase-3 beta; test: Inhibition of GSK3-beta in human HEK293T cells harboring tau P301L mutant assessed as inhibition of tau hyperphosphorylation at Ser396 residue measured after 48 hrs by western blot analysis; assay type: cell-based; settings: dose 2.5-10 µM, DDE = dose-dependent effect
Target sequence in this assay (P49841 whole entry, looked up): as above

[6] = target: T1, Glycogen synthase kinase-3 beta; test: Inhibition of GSK3-beta in human HEK293T cells harboring tau P301L mutant assessed as increase in GSK3-beta phosphorylation at Ser9 residue measured after 48 hrs by western blot analysis; assay type: cell-based; settings: dose 2.5-10 µM, DDE = dose-dependent effect
Target sequence in this assay (P49841 whole entry, looked up): as above

L02 [7] = test: Cytotoxicity against human HL7702 cells assessed as reduction in cell viability at 1 to 20 uM incubated for 48 hrs by MTT assay; assay type: toxicity, cell-based; settings: l02, 48 h, dose 1-20 µM
[8] = Acute toxicity in C57BL/6 mouse assessed as effect on body weight at 1000 to 1500 mg/kg measured after 14 days; assay type: organism-based; settings: in vivo, 336 h, dose 1000-1500 mg/kg, time 14 day
[9] = target: Glycogen synthase kinase-3 alpha (Homo sapiens) (UniProt P49840); test: Inhibition of GSK3-alpha (unknown origin) at 0.5 to 1 uM; settings: dose 0.5-1 µM
[10] = target: T1, Glycogen synthase kinase-3 beta; test: Inhibition of GSK3-beta in human HEK293T cells harboring tau P301L mutant assessed as reduction of NFT production measured after 24 hrs by fluorescence staining based analysis; assay type: cell-based; settings: dose 2.5-10 µM, DDE = dose-dependent effect
Target sequence in this assay (P49841 whole entry, looked up): as above

[11] = target: Dual specificity tyrosine-phosphorylation-regulated kinase 1B (Homo sapiens) (UniProt Q9Y463); test: Inhibition of DYRK1B (unknown origin) at 0.5 to 1 uM; settings: dose 0.5-1 µM
[12] = target: T1, Glycogen synthase kinase-3 beta; test: Inhibition of GSK3-beta (unknown origin) incubated for 60 mins by ATP-Glo luminescent assay
Target sequence in this assay (P49841 whole entry): as the sequence (P49841 whole entry, looked up) above

SH-SY5Y [13] = test: Cytotoxicity against human SH-SY5Y cells assessed as reduction in cell viability at 1 to 20 uM incubated for 48 hrs by MTT assay; assay type: toxicity, cell-based; settings: dose 1-20 µM
HEK-293T = test: Cytotoxicity against human HEK-293T cells assessed as reduction in cell viability at 1 to 20 uM incubated for 48 hrs by MTT assay; assay type: toxicity, cell-based; settings: dose 1-20 µM
[14] = target: Dual specificity tyrosine-phosphorylation-regulated kinase 1A (Homo sapiens) (UniProt Q13627); test: Inhibition of DYRK1A (unknown origin) at 0.5 to 1 uM; settings: dose 0.5-1 µM
HepG2 = test: Cytotoxicity against human HepG2 cells assessed as reduction in cell viability at 1 to 20 uM incubated for 48 hrs by MTT assay; assay type: toxicity, cell-based; settings: hepg2, 48 h, dose 1-20 µM
L02 [15] = test: Cytotoxicity against human HL7702 cells assessed as reduction in cell viability at 10 uM incubated for 48 hrs by MTT assay; assay type: toxicity, cell-based; settings: l02, 48 h
SH-SY5Y [16] = test: Cytotoxicity against human SH-SY5Y cells assessed as reduction in cell viability at 10 uM incubated for 48 hrs by MTT assay; assay type: toxicity, cell-based

Sequence of Cholinesterase (P81908 whole entry): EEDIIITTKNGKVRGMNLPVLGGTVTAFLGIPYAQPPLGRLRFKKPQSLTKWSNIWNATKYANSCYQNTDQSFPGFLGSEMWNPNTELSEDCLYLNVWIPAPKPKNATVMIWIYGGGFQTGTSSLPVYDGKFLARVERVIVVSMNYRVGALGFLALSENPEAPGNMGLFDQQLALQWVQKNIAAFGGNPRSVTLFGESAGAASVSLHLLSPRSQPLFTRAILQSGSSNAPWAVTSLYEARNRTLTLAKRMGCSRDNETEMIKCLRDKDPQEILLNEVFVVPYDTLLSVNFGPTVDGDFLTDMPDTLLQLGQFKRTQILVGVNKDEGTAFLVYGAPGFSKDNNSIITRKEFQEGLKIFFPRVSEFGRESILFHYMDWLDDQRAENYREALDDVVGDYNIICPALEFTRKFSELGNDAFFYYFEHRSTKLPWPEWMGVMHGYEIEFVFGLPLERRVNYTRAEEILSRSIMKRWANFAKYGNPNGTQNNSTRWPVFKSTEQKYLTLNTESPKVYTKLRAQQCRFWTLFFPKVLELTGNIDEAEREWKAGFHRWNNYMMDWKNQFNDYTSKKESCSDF
Sequence of Cholinesterase (Equus caballus) (P81908 whole entry): as above
Sequence of Acetylcholinesterase (O42275 whole entry): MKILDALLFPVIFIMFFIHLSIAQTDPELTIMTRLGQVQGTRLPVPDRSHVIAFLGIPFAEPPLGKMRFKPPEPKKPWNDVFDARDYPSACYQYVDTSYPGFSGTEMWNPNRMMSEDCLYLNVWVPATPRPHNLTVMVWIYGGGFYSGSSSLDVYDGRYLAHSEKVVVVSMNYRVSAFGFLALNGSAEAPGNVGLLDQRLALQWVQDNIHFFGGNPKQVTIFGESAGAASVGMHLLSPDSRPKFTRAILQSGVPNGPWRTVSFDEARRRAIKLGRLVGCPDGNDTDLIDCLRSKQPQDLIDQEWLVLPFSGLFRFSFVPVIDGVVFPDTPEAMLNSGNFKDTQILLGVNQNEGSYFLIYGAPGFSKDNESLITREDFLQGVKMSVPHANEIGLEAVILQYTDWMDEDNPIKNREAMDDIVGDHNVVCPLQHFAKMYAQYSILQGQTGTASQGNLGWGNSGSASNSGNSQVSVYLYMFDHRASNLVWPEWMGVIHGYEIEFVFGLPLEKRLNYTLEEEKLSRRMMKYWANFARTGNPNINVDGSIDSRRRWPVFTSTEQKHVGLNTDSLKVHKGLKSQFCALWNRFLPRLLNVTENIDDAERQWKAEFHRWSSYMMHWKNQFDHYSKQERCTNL
Sequence of Acetylcholinesterase (Electrophorus electricus) (O42275 24-633 limits assumed): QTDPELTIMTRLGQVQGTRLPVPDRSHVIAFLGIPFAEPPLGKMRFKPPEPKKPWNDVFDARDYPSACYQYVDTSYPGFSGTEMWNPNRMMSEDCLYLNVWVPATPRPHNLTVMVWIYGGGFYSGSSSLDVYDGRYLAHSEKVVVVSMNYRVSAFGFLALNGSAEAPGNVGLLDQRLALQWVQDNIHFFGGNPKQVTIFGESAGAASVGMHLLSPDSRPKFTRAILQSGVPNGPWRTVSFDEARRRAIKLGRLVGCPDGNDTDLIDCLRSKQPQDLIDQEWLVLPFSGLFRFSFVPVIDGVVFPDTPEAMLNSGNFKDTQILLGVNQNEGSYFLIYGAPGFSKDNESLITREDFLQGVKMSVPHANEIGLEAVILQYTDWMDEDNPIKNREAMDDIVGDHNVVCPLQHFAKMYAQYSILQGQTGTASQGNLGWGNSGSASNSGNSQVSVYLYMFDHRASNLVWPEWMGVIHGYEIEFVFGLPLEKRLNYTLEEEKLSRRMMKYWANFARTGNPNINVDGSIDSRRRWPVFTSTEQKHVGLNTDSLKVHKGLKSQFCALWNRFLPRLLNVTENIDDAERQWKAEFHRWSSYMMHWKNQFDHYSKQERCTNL
Sequence of Glycogen synthase kinase-3 alpha (Homo sapiens) (P49840 2-483 limits assumed): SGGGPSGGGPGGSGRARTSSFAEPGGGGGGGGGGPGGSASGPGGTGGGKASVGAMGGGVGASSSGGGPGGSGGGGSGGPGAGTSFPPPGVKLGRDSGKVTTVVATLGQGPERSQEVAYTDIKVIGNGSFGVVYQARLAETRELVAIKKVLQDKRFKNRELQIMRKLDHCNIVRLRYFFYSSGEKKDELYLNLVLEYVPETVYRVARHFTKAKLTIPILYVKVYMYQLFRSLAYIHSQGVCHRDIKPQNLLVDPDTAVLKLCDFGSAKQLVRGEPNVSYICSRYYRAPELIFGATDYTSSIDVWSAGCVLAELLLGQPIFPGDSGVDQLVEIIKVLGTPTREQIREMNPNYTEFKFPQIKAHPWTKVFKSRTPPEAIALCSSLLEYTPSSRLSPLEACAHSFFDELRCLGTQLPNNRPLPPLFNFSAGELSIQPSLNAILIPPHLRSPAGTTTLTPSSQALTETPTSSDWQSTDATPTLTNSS
Sequence of Dual specificity tyrosine-phosphorylation-regulated kinase 1B (Homo sapiens) (Q9Y463 whole entry, looked up): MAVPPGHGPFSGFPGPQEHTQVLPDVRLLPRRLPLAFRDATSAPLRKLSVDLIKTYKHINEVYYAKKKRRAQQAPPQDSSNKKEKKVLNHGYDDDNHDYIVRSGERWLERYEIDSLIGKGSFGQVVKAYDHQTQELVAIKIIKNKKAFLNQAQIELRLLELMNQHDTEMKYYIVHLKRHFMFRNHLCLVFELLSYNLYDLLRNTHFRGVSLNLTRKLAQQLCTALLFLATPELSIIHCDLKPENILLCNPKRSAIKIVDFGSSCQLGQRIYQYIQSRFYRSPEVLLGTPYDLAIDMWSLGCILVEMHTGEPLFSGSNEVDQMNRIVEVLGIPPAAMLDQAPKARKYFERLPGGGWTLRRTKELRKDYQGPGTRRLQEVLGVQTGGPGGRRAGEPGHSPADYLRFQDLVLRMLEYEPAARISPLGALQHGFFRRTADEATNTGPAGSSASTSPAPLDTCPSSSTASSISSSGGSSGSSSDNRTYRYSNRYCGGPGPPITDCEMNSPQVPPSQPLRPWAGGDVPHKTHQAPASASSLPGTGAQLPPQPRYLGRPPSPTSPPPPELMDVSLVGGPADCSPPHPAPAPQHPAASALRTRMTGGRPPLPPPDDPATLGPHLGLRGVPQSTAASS

| SMILES | inhibition [1] | Ratio IC50 [2] | IC50 (Acetylcholinesterase) | inhibition [3] | IC50 (Cholinesterase) | further results |
| --- | --- | --- | --- | --- | --- | --- |
| O=C(NCC1CCN(Cc2ccccc2)CC1)c1ccc2c(c1)[nH]c1c(NC(=O)C3CC3)nccc12 | 20.8% | 48.1 | 1.73 µM | 37.2% | > 50 µM | – |
| Cc1ccc(CN2CCC(CCNC(=O)c3ccc4c(c3)[nH]c3c(NC(=O)C5CC5)nccc34)CC2)cc1 | 62.7% | > 18.2 | 2.74 µM | 44.3% | > 50 µM | – |
| O=C(NC1CCN(Cc2cccc(F)c2)CC1)c1ccc2c(c1)[nH]c1c(NC(=O)C3CC3)nccc12 | 79.8% | > 22.5 | 2.22 µM | 30.8% | > 50 µM | – |
| O=C(NCCC1CCN(Cc2ccccc2F)CC1)c1ccc2c(c1)[nH]c1c(NC(=O)C3CC3)nccc12 | 60.8% | 77.1 | 0.27 µM | 63% | 20.8 µM | Ratio IC50 [4]: 37; inhibition [5]: Dde; inhibition [6]: Dde; Activity (L02 [7]): Non-Toxic; Activity [8]: Non-Toxic; inhibition [9]: Active; inhibition [10]: Dde; inhibition [11]: Active; IC50 [12]: 6.78 µM; Activity (SH-SY5Y [13]): Non-Toxic; Activity (HEK-293T): Non-Toxic; inhibition [14]: Active; Activity (HepG2): Non-Toxic |
| O=C(NCCC1CCN(Cc2ccc(C(F)(F)F)cc2)CC1)c1ccc2c(c1)[nH]c1c(NC(=O)C3CC3)nccc12 | 73.8% | > 1.6 | 31.2 µM | < 10% | > 50 µM | Activity (L02 [15]): Toxic; Activity (SH-SY5Y [16]): Toxic |
| O=C(NCC1CCN(Cc2ccc(F)cc2)CC1)c1ccc2c(c1)[nH]c1c(NC(=O)C3CC3)nccc12 | 40.9% | > 16.2 | 3.08 µM | 39.7% | > 50 µM | – |
| O=C(NC1CCN(Cc2ccccc2F)CC1)c1ccc2c(c1)[nH]c1c(NC(=O)C3CC3)nccc12 | 84.6% | > 18.9 | 2.64 µM | 30.8% | > 50 µM | – |
| O=C(NCCC1CCN(Cc2cccc([N+](=O)[O-])c2)CC1)c1ccc2c(c1)[nH]c1c(NC(=O)C3CC3)nccc12 | 66.2% | > 31.9 | 1.57 µM | 21.5% | > 50 µM | – |
| O=C(NCCC1CCN(Cc2c(Cl)cccc2Cl)CC1)c1ccc2c(c1)[nH]c1c(NC(=O)C3CC3)nccc12 | 52.1% | > 56.2 | 0.89 µM | < 10% | > 50 µM | – |
| COC(=O)c1ccc2c(c1)[nH]c1c(NC(=O)C3CC3)nccc12 | – | – | > 20 µM | – | > 20 µM | IC50 [12]: 0.07 µM |
| O=C(NC1CCN(Cc2ccccc2)CC1)c1ccc2c(c1)[nH]c1c(NC(=O)C3CC3)nccc12 | 63.3% | 16.6 | 2.33 µM | 52.6% | 38.8 µM | – |
| O=C(NCCC1CCN(Cc2ccc(Cl)cc2)CC1)c1ccc2c(c1)[nH]c1c(NC(=O)C3CC3)nccc12 | 84.3% | > 3.35 | 14.9 µM | < 10% | > 50 µM | Activity (L02 [15]): Toxic; Activity (SH-SY5Y [16]): Toxic |
| O=C(NCC1CCN(Cc2cccc(F)c2)CC1)c1ccc2c(c1)[nH]c1c(NC(=O)C3CC3)nccc12 | 11.1% | > 22.3 | 2.24 µM | 32.6% | > 50 µM | – |
| O=C(NCC1CCN(Cc2ccccc2F)CC1)c1ccc2c(c1)[nH]c1c(NC(=O)C3CC3)nccc12 | 42.1% | 40.7 | 0.84 µM | 55.6% | 34.2 µM | – |
| O=C(NC1CCN(Cc2cc(F)cc(F)c2)CC1)c1ccc2c(c1)[nH]c1c(NC(=O)C3CC3)nccc12 | 41.9% | > 1.49 | 33.5 µM | < 10% | > 50 µM | – |
| O=C(NC1CCN(Cc2ccc(C(F)(F)F)cc2)CC1)c1ccc2c(c1)[nH]c1c(NC(=O)C3CC3)nccc12 | 71.9% | > 3.6 | 13.9 µM | < 10% | > 50 µM | – |

| SMILES | inhibition [1] | Ratio IC50 [2] | IC50 (Acetylcholinesterase) | inhibition [3] | IC50 (Cholinesterase) | further results |
| --- | --- | --- | --- | --- | --- | --- |
| Cc1ccc(CN2CCC(CNC(=O)c3ccc4c(c3)[nH]c3c(NC(=O)C5CC5)nccc34)CC2)cc1 | 46.4% | > 16.6 | 3.02 µM | 15.3% | > 50 µM | – |
| COc1ccc2c(c1)[nH]c1c(C)nccc12 [HARMINE] | – | – | 10.1 µM | 74.1% | 13.6 µM | – |
| O=C(NC1CCN(Cc2ccc(Cl)cc2)CC1)c1ccc2c(c1)[nH]c1c(NC(=O)C3CC3)nccc12 | 57.9% | > 2.64 | 18.9 µM | < 10% | > 50 µM | – |
| O=C(NCCC1CCN(Cc2ccc(F)cc2)CC1)c1ccc2c(c1)[nH]c1c(NC(=O)C3CC3)nccc12 | 14.9% | 16.8 | 1.21 µM | 68.7% | 20.3 µM | – |
| O=C(NCC1CCN(Cc2ccc(Cl)cc2)CC1)c1ccc2c(c1)[nH]c1c(NC(=O)C3CC3)nccc12 | 11.7% | > 2.55 | 19.6 µM | < 10% | > 50 µM | – |
| O=C(NCCC1CCN(Cc2cc(F)cc(F)c2)CC1)c1ccc2c(c1)[nH]c1c(NC(=O)C3CC3)nccc12 | 2.71% | > 8.62 | 5.8 µM | < 10% | > 50 µM | – |
| O=C(NCCC1CCN(Cc2cccc(F)c2)CC1)c1ccc2c(c1)[nH]c1c(NC(=O)C3CC3)nccc12 | 47.8% | > 50.1 | 0.96 µM | 65.4% | 19.9 µM | – |
| O=C(NCC1CCN(Cc2ccc(C(F)(F)F)cc2)CC1)c1ccc2c(c1)[nH]c1c(NC(=O)C3CC3)nccc12 | 59.5% | > 4.81 | 10.4 µM | < 10% | > 50 µM | – |
| O=C(NCC1CCN(Cc2cc(F)cc(F)c2)CC1)c1ccc2c(c1)[nH]c1c(NC(=O)C3CC3)nccc12 | – | > 9.92 | 5.04 µM | 10.4% | > 50 µM | – |
| O=C(NC1CCN(Cc2ccc(F)cc2)CC1)c1ccc2c(c1)[nH]c1c(NC(=O)C3CC3)nccc12 | 74.6% | > 23.4 | 2.14 µM | 36.9% | > 50 µM | – |
| O=C(NC1CCN(Cc2cccc([N+](=O)[O-])c2)CC1)c1ccc2c(c1)[nH]c1c(NC(=O)C3CC3)nccc12 | 78% | > 18.1 | 2.77 µM | 20.1% | > 50 µM | – |
| Cc1ccc(CN2CCC(NC(=O)c3ccc4c(c3)[nH]c3c(NC(=O)C5CC5)nccc34)CC2)cc1 | 10.5% | > 5.84 | 8.56 µM | 23% | > 50 µM | – |
| O=C(NC1CCN(Cc2c(Cl)cccc2Cl)CC1)c1ccc2c(c1)[nH]c1c(NC(=O)C3CC3)nccc12 | 21.9% | > 24.9 | 2.01 µM | < 10% | > 50 µM | – |
| O=C(NCC1CCN(Cc2c(Cl)cccc2Cl)CC1)c1ccc2c(c1)[nH]c1c(NC(=O)C3CC3)nccc12 | 11.3% | > 147 | 0.34 µM | < 10% | > 50 µM | – |
| O=C(NCC1CCN(Cc2cccc([N+](=O)[O-])c2)CC1)c1ccc2c(c1)[nH]c1c(NC(=O)C3CC3)nccc12 | 52.1% | > 24.4 | 2.05 µM | < 10% | > 50 µM | – |
| O=C(NCCC1CCN(Cc2ccccc2)CC1)c1ccc2c(c1)[nH]c1c(NC(=O)C3CC3)nccc12 | -2.01% | 30.2 | 0.78 µM | 68.3% | 23.6 µM | – |
